Measurements: publication PMC4791575 (ACS Infectious Diseases, 2016)
Like-named read-outs stand apart in the source and are kept apart here.

Assays:
[1] = tested on: P. falciparum C235; assay: microbe, parasite or virus in culture; assay type: cell-based, Plasmodium falciparum; conditions: for EC50: Plasmodium falciparum, read-out: P. falciparum C235 pEC50 (converted)
[2] = tested on: P. falciparum D6; assay: microbe, parasite or virus in culture; assay type: cell-based, Plasmodium falciparum; conditions: for EC50: Plasmodium falciparum, D6, read-out: P. falciparum D6 pEC50 (converted); for P. falciparum D6 pEC50: D6 strain
[3] = tested on: HepG2 cells; assay: HepG2 host cell toxicity assay; assay type: cell-based; conditions: HepG2, purchased inhibitors, Table 3
[4] = tested on: T. brucei cells; assay: microbe, parasite or virus in culture; assay type: cell-based, Trypanosoma brucei; conditions: for EC50: Trypanosoma brucei, read-out: T. brucei pEC50 (within 46%) (converted); for T. brucei pEC50 (within 46%): purchased inhibitors, Table 3
[5] = tested on: L. major intracellular amastigotes; assay: microbe, parasite or virus in culture; assay type: cell-based, Leishmania major; conditions: for EC50: Leishmania major, read-out: Leishmania Amast pEC50 (converted); for Leishmania Amast pEC50: L. major intracellular amastigotes
[6] = tested on: T. cruzi intracellular amastigotes (Tulahuen strain); assay: microbe, parasite or virus in culture; assay type: cell-based, Trypanosoma cruzi; conditions: for EC50: Trypanosoma cruzi, TULAHUEN, read-out: T. cruzi pEC50 (μM) (within 21%) (converted); for T. cruzi pEC50 (within 21%): intracellular amastigotes, Tulahuen strain
[7] = tested on: L. major promastigotes; assay: microbe, parasite or virus in culture; assay type: cell-based, Leishmania major; conditions: for EC50: Leishmania major, read-out: Leishmania Promast pEC50 (converted); for Leishmania Promast pEC50: L. major promastigotes
[8] = tested on: P. falciparum W2; assay: microbe, parasite or virus in culture; assay type: cell-based, Plasmodium falciparum; conditions: for EC50: Plasmodium falciparum, W2, read-out: P. falciparum W2 pEC50 (converted)
[9] = tested on: 3T3; assay: 3T3 host cell toxicity; assay type: cell-based
[10] = HAT patients; cited from earlier work

Row | Structure (SMILES) | EC50 [1] [µM] | EC50 [2] [µM] | EC50 [5] [µM] | EC50 [7] [µM] | EC50 [8] [µM] | P. falciparum C235 pEC50 [1] | P. falciparum D6 pEC50 [2] | T. brucei pEC50 (within 46%) [4] | Leishmania Amast pEC50 [5] | T. cruzi pEC50 (within 21%) [6] | Leishmania Promast pEC50 [7] | P. falciparum W2 pEC50 [8] | host cell tox HepG2 pTC50 [3] | EC50 [4] [µM] | EC50 [6] [µM] | host cell tox 3T3 pTC50 [9] | T. brucei proliferation activity (in words; active = pEC50 ≥ 6) [4] | mortality rate of melarsoprol treatment [10] [%] | T. brucei proliferation activity (in words; active = pEC50 ≥ 6) ([4]; listed as NVP-TAE684)
1 | CNC(=O)c1nn(C)c2c1C(C)(C)Cc1cnc(Nc3ccc(N4CCN(C)CC4)cc3)nc1-2 [NEU-969, PHA-8481256] | 6.31 | 6.31 | 5.01 | 0.316 | 7.94 |  |  |  |  |  |  |  | 5.0 | 0.0251 | 0.0398 | <4 |  |  | 
2 | C[C@@H](Oc1cc(-c2cnn(C3CCNCC3)c2)cnc1N)c1c(Cl)ccc(F)c1Cl [NEU-838, crizotinib] | 0.1 | 0.794 | 1.58 | 0.631 | 0.0398 |  |  |  |  |  |  |  | 5.4 | 0.398 | 7.94 | 4.8 | potent T. brucei proliferation inhibitors |  | 
3 | COc1ccc2c(c1)[nH]c1c(C)nccc12 [NEU-1049, harmine] | > 20 | > 20 | 1.26 | 1.26 | > 20 |  |  |  |  |  |  |  | <5.1 | > 3.16 | 15.8 | <4 |  |  | 
4 | CC[C@H](CO)Nc1nc(NCc2ccccc2)c2ncn(C(C)C)c2n1 [NEU-977, roscovitine] |  |  |  |  |  |  |  |  |  |  |  |  | 4.5 |  |  | <4 |  |  | 
5 | Nc1nc(Nc2ccc(S(N)(=O)=O)cc2)nn1C(=O)c1c(F)cccc1F [NEU-971, JNJ-77066218] | 1.26 | 2 | > 15.8 | > 25.1 | 1 |  |  |  |  |  |  |  | 5.2 | 0.316 | > 50.1 | <4 |  |  | 
6 | COc1cc(OC)c(/C=C/S(=O)(=O)Cc2ccc(OC)c(NCC(=O)O)c2)c(OC)c1 [NEU-973, ON-019109] | > 20 | > 20 | > 15.8 | > 25.1 | > 20 |  |  |  |  |  |  |  | <4.4 | > 3.16 | > 50.1 | <4 |  |  | 
7 | O=C1NC(=O)C(c2ccccc2[N+](=O)[O-])=C1Nc1ccc(O)c(Cl)c1 [NEU-986, SB 41528622] |  |  |  |  |  |  |  |  |  |  |  |  | <4.4 |  |  | 4.2 |  |  | 
8 | Nc1nc(N)nc(Nc2ccc([As]3SCC(CO)S3)cc2)n1 (centres unmarked) [melarsoprol] |  |  |  |  |  |  |  |  |  |  |  |  |  |  |  |  |  | ≥ 5 | 
9 | COc1cc(N2CCC(N3CCN(C)CC3)CC2)ccc1Nc1ncc(Cl)c(Nc2ccccc2S(=O)(=O)C(C)C)n1 [NEU-844, TAE684] | 0.501 | 0.501 | 1.26 | 0.316 | 0.398 |  |  |  |  |  |  |  | 5.3 | 0.1 | 5.01 | 4.6 |  |  | potent T. brucei proliferation inhibitors
10 | CCc1cc(Nc2nccc(-c3c(-c4ccc(OC)c(C(=O)Nc5c(F)cccc5F)c4)nc4ccccn34)n2)c(OC)cc1N1CCC(N2CCN(S(C)(=O)=O)CC2)CC1 [NEU-970, GSK1904529A7] |  |  |  |  |  | 6.9 | 6.8 | 5.9 | 5.5 | < 4.3 | <4.9 | 7.0 | <4.4 |  |  | <4 |  |  | 
11 | CCCCOc1c(C(=O)c2c(F)cc(C)cc2F)c[nH]c2nncc1-2 [NEU-968, BMS-2652465] | 12.6 | 15.8 | > 15.8 | 0.251 | 10 |  |  |  |  |  |  |  | <4.4 | 0.501 | > 50.1 | <4 |  |  | 
12 | CCc1cnn2c(NCc3ccc[n+]([O-])c3)cc(N3CCCC[C@H]3CCO)nc12 [NEU-975, dinaciclib] |  |  |  |  |  |  |  |  |  |  |  |  | <4.4 |  |  | <4 |  |  | 
13 | Nc1ncnc2c1c(-c1cccc(OCc3ccccc3)c1)cn2[C@H]1C[C@@H](CN2CCC2)C1 [NEU-967, NVP-AEW5414] | 1.26 | 1.26 | 3.98 | 0.1 | 1 |  |  |  |  |  |  |  | 5.5 | 2 | 3.98 | 4.8 |  |  | 

Second part, led by results:

Row | EC50 [1] [µM] | EC50 [2] [µM] | EC50 [5] [µM] | EC50 [7] [µM] | EC50 [8] [µM] | P. falciparum C235 pEC50 [1] | P. falciparum D6 pEC50 [2] | T. brucei pEC50 (within 46%) [4] | Leishmania Amast pEC50 [5] | T. cruzi pEC50 (within 21%) [6] | Leishmania Promast pEC50 [7] | P. falciparum W2 pEC50 [8] | Structure (SMILES) | host cell tox HepG2 pTC50 [3] | EC50 [4] [µM] | EC50 [6] [µM] | host cell tox 3T3 pTC50 [9] | T. brucei proliferation activity (in words; active = pEC50 ≥ 6) [4] | mortality rate of melarsoprol treatment [10] [%] | T. brucei proliferation activity (in words; active = pEC50 ≥ 6) ([4]; listed as NVP-TAE684)
14 |  |  |  |  |  | 5.1 | 5.0 | 6.0 | <4.8 | < 4.3 | 4.7 | 4.7 | Nc1cccc(-c2cc3c(Oc4cccc(O)c4)ncnc3[nH]2)c1 [NEU-989, TWS11925] | <4.4 |  |  | 4.4 |  |  | 
15 | 2.51 | 2 | > 15.8 | > 25.1 | 2.51 |  |  |  |  |  |  |  | CC(C)CC(=O)Nc1[nH]nc2c1CN(C(=O)C1CCN(C)CC1)C2(C)C [NEU-1007, PHA-79388727] | <4.4 | 2 | > 50.1 | <4 |  |  | 
16 | 1.26 | 1.26 | 2.51 | 0.398 | 1 |  |  |  |  |  |  |  | Cc1ncc(-c2ccnc(Nc3ccc(S(C)(=O)=O)cc3)n2)n1C(C)C [NEU-985, AZD543821] | 4.9 | 0.0316 | 1.58 | <4 |  |  | 
17 | 0.0126 | 0.02 | 7.94 | 3.98 | 0.01 |  |  |  |  |  |  |  | CC[C@@H]1C(=O)N(C)c2cnc(Nc3ccc(C(=O)NC4CCN(C)CC4)cc3OC)nc2N1C1CCCC1 [NEU-980, BI 253616] | 5.6 | 0.631 | 20 | 4.5 |  |  | 
18 |  |  |  |  |  | <4.7 | <4.7 | <5.5 | <4.8 | < 4.3 | 5.2 | <4.7 | Nc1nc(NCCNc2ncc(-c3ncc[nH]3)c(-c3ccc(Cl)cc3Cl)n2)ccc1[N+](=O)[O-] [NEU-978, CHIR-9801414] | 4.8 |  |  | <4 |  |  | 
19 | 1.58 | 2 | 3.16 | 0.398 | 2 |  |  |  |  |  |  |  | CN1CC[C@H](c2c(O)cc(O)c3c(=O)cc(-c4ccccc4Cl)oc23)[C@H](O)C1 [NEU-987, flavopiridol] | < 4.4 | 0.158 | 12.6 | < 4 |  |  | 
20 | 0.158 | 0.158 | 7.94 | 1.58 | 0.158 |  |  |  |  |  |  |  | CC[C@@H]1C(=O)N(C)c2cnc(Nc3ccc(C(=O)N[C@H]4CC[C@H](N5CCN(CC6CC6)CC5)CC4)cc3OC)nc2N1C(C)C [NEU-979, volasertib] | 5.5 | > 3.16 | 12.6 | 4.6 |  |  | 
21 | 20 | 25.1 | > 15.8 | 0.316 | 25.1 |  |  |  |  |  |  |  | O=c1sn(-c2cccc3ccccc23)c(=O)n1Cc1ccccc1 [NEU-991, tideglusib] | <4.4 | > 3.16 | 20 | 4.1 |  |  | 
22 | > 20 | > 20 | > 15.8 | 2.51 | > 20 |  |  |  |  |  |  |  | Cn1cc(C2=C(c3ccc(Cl)cc3Cl)C(=O)NC2=O)c2ccccc21 [NEU-990, SB 21676322] | <4.4 | > 3.16 | > 50.1 | <4 |  |  | 
23 | 2 | 5.01 | > 15.8 | > 25.1 | 3.16 |  |  |  |  |  |  |  | CC(C)(C)c1cnc(CSc2cnc(NC(=O)C3CCNCC3)s2)o1 [NEU-984, SNS-03219, 20] | <4.4 | 0.126 | > 50.1 | <4 |  |  | 
24 | 0.316 | 1.26 | > 15.8 | > 25.1 | 0.794 |  |  |  |  |  |  |  | O=C(NC1CCNCC1)c1n[nH]cc1NC(=O)c1c(Cl)cccc1Cl [NEU-982, AT751918] | <4.4 | 0.316 | 1.26 | <4 |  |  | 
25 | 0.501 | 0.501 | > 15.8 | 7.94 |  |  |  |  |  |  |  |  | C[C@]1(O)C[C@@H](c2nc(-c3ccc4ccc(-c5ccccc5)nc4c3)c3c(N)nccn32)C1 [NEU-976, linsitinib] | 4.5 | > 3.16 | 10 | <4 |  |  | 
26 | > 20 | 3.98 | > 15.8 | 0.126 | > 20 |  |  |  |  |  |  |  | CCc1cc2c(cc1N1CCC(N3CCOCC3)CC1)C(C)(C)c1[nH]c3cc(C#N)ccc3c1C2=O [NEU-974, CH542480210] | <4.4 | > 3.16 | > 50.1 | <4 |  |  | 
